Consider 42 compounds from paper PMC8041284, “Tunable Methacrylamides for Covalent Ligand Directed Release Chemistry” (Journal of the American Chemical Society, 2021).

As a reminder, the inhibition is the relative decrease from the control value, in per cent.

BTK, sequence (Q06187 402-655 limits assumed): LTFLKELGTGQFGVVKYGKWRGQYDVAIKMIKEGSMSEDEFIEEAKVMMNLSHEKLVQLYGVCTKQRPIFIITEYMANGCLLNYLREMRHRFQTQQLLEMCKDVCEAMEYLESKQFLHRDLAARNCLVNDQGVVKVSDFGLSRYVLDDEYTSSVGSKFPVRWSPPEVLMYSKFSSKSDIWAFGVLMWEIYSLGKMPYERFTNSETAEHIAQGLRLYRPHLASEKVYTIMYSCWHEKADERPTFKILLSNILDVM

The first assay addresses BTK (Homo sapiens, UniProt Q06187). The assay can be described thus: biochemical. The following applies: read-out: BTK inhibition (%).
`C[C@]12CCC(=O)C(O)=C1CC[C@@H]1[C@@H]2CC[C@]2(C)C(=O)CC[C@@H]12` [PCM-0214668]: the inhibition at 10 µM was -1.4%.

As for `COc1cc(C)[nH]c(=O)c1CNC(=O)c1c(C)n([C@H](C)C2CCOCC2)c2ccccc12` [PCM-0214591], the inhibition at 10 µM was -24.7%. The same measure, in the same setting: the figure for `CC(C)=CCC[C@H](C(=O)O)[C@@H]1CC[C@]2(C)C3=C(CC[C@@]12C)[C@@]1(C)CCC(=O)C(C)(C)[C@@H]1CC3` [PCM-0216312] is -6.2%; for `C[C@@]12C[C@@H](c3ccoc3)OC(=O)[C@@H]1CC[C@]1(C)[C@H]2[C@@H]2C=C[C@@]1(O)C(=O)O2` [PCM-0216442] it is 0%.

Staying with this assay, now noted: read-out: BTK inhibition (%), 0.75 uM BTK, […] probe 3l, 15 min preincubation.
For the compound `C[C@H]1[C@H](C)CC[C@]2(C(=O)O)CC[C@]3(C)C(=CC[C@@H]4[C@@]5(C)CC[C@H](O)C(C)(C)[C@@H]5CC[C@]43C)[C@H]12` [PCM-0214657], the inhibition at 10 µM worked out at 10.9%. On the same count and under the same terms, the figure for `CC1(C)C[C@@H]1C(=O)N/C(=C\CCCCSC[C@H](N)C(=O)O)C(=O)O` [PCM-0216257] is -10%.

`CCCOC(C(=O)OC1CCN(C)CC1)(c1ccccc1)c1ccccc1` [PCM-0215115]: the inhibition at 10 µM was -24.1%. The same measure, in the same setting: the figure for `CC(C)(C#N)c1cc(Cn2cncn2)cc(C(C)(C)C#N)c1` [PCM-0086178] is -11%. Still for that read-out and setting: for `COc1cc(/C=C/C(=O)O[C@H]2CC[C@]34C[C@]35CC[C@]3(C)[C@@H]([C@H](C)CCC=C(C)C)CC[C@@]3(C)[C@@H]5CC[C@H]4C2(C)C)ccc1O` [PCM-0214964] the value was 16.3%; for `CC(=O)O[C@@]12CO[C@@H]1C[C@H](O)[C@@]1(C)C(=O)[C@H](O)C3=C(C)[C@@H](O)C[C@@](O)([C@@H](OC(=O)c4ccccc4)[C@H]21)C3(C)C` [PCM-0095302], 9.3%.

In the case of `CCN(CC)CC(=O)Oc1ccc(NC(C)=O)cc1` [PCM-0215103], the inhibition at 10 µM is -0.8%. The same measure, in the same setting: the figure for `Cc1ccc(S(=O)(=O)NC(=O)NN2CC3CCCC3C2)cc1` (stereo not drawn) [PCM-0086156] is -2.3%; for `CCOC(=O)[C@H]1O[C@@H]1C(=O)N[C@@H](CC(C)C)C(=O)NCCC(C)C` [PCM-0215286] it is 14.7%; for `CN(C)CCOc1ccc(-c2nc(-c3ccc4c(c3)CCC4=NO)c(-c3ccncc3)[nH]2)cc1` [PCM-0095262] it is -2.1%. The same measure, in the same setting: for `Cc1nc(Nc2ncc(C(=O)Nc3cc(NC(=O)c4cccc(C(F)(F)F)c4)ccc3C)s2)cc(N2CCN(CCO)CC2)n1` [PCM-0216225] the value was 47.9%; for `CC[C@H](C)[C@H](N)C(=O)N[C@H]1CSSC[C@@H](C(=O)N[C@H](C(N)=O)[C@@H](C)O)NC(=O)[C@H](CCCN=C(N)N)NC(=O)[C@H](Cc2cnc[nH]2)NC(=O)[C@H](Cc2cnc[nH]2)NC(=O)CNC(=O)[C@H](Cc2c[nH]c3ccccc23)NC(=O)[C@H](CC(=O)O)NC(=O)[C@H](CCC(N)=O)NC(=O)[C@H](C(C)C)NC(=O)[C@H](C(C)C)NC1=O` [PCM-0215822], -3.4%. The same measure, in the same setting: for `CCCCCN(C)CCC(O)(P(=O)(O)O)P(=O)(O)O` [PCM-0065595] the value was -0.9%; for `COc1ccc(-c2oc3c(CC=C(C)C)c(O)cc(O)c3c(=O)c2O[C@@H]2O[C@@H](C)[C@H](O)[C@@H](O)[C@H]2O)cc1` [PCM-0214963], 6.2%; for `COc1cc2c(c(O)c1OC)-c1c(cc(OC)c(OC)c1OC)C[C@@H](C)[C@@H](C)C2` [PCM-0216483], 23.9%. Regarding `C=C1CCC[C@]2(C)C[C@]3(O)OC(=O)C(C)=C3C[C@@H]12` [PCM-0216544], the inhibition at 10 µM was 6.9%. `NC(=O)[C@H](CCCN=C(N)CCl)NC(=O)c1ccccc1` [PCM-0215816]: the inhibition at 10 µM is -5.5%. On the same count and under the same terms, for `Nc1cccc(-c2cc3c(Oc4cccc(O)c4)ncnc3[nH]2)c1` [PCM-0095147] the value was 82.1%; for `CCOC(CN1CCN(CC(C)C(=O)c2ccccc2)CC1)c1ccccc1` (stereo not drawn) [PCM-0215205], -6.8%. Same read-out and setting: for `C[C@@H]1O[C@@H](O[C@H]2[C@H](Oc3cc(O)c4c(c3)O[C@H](c3ccc(O)cc3)CC4=O)O[C@H](CO)[C@@H](O)[C@@H]2O)[C@H](O)[C@H](O)[C@H]1O` [PCM-0088327] the value was -7%. The same measure, in the same setting: the figure for `COc1ccc2c(O[C@@H]3C[C@H]4C(=O)N[C@]5(C(=O)NS(=O)(=O)C6CC6)C[C@H]5/C=C\CCCCN(C)C(=O)[C@@H]4C3)cc(-c3nc(C(C)C)cs3)nc2c1C` [PCM-0215097] is 55.6%; for `CC1(C)O[C@@H]2C[C@H]3[C@@H]4C[C@H](F)C5=CC(=O)C=C[C@]5(C)[C@@]4(F)[C@@H](O)C[C@]3(C)[C@]2(C(=O)CO)O1` [PCM-0086270] it is -17.1%. On to `CNC(=C[N+](=O)[O-])NCCSCc1csc(CN(C)C)n1` [PCM-0086495], for which the inhibition at 10 µM is 2.1%.

On to `CCOc1cc2ncc(C#N)c(Nc3ccc(OCc4ccccn4)c(Cl)c3)c2cc1NC(=O)/C=C/CN(C)C` [PCM-0095315], for which the inhibition at 10 µM amounted to 80%.

Regarding `Cc1cc(=O)oc2c([N+](=O)[O-])c(O)ccc12` [PCM-0216627], the inhibition at 10 µM is 13.1%. Still for that read-out and setting: the figure for `COc1ccc([C@@H]2CC(=O)c3c(O)cc(O[C@@H]4O[C@H](CO)[C@@H](O)[C@H](O)[C@H]4O[C@@H]4O[C@@H](C)[C@H](O)[C@@H](O)[C@H]4O)cc3O2)cc1O` [PCM-0214691] is -10.3%. Same read-out and setting: the figure for `OC[C@H]1O[C@@H](Oc2cc3c(O)cc(O)cc3[o+]c2-c2ccc(O)c(O)c2)[C@H](O)[C@@H](O)[C@@H]1O` [PCM-0216543] is 23.9%; for `COc1cc(OC)c(NC(=O)Nc2cc(C)on2)cc1Cl` [PCM-0095491] it is 10.9%. Turning to `CC(C)n1c(/C=C/[C@H](O)C[C@H](O)CC(=O)O)c(-c2ccc(F)cc2)c2ccccc21` [PCM-0090402], the inhibition at 10 µM stood at 15.9%. Still for that read-out and setting: for `Fc1ccc(-c2c3cccc(C(F)(F)F)c3nn2Cc2ccc(F)cc2Cl)cc1` [PCM-0215789] the value was 30.1%. On to `CN(CC(=O)N(Cc1ccc(C2CCCCC2)cc1)c1ccc(C(=O)O)cc1)S(=O)(=O)c1c(F)c(F)c(F)c(F)c1F` [PCM-0095763], for which the inhibition at 10 µM came to 68.7%. Same read-out and setting: for `CC(=O)O[C@@H](C[C@@H](C)C1=C2C[C@H](O)[C@H]3[C@@]4(C)CCC(=O)C(C)(C)[C@@H]4CC[C@]3(C)[C@@]2(C)CC1)[C@H]1OC1(C)C` [PCM-0216390] the value was -4.6%; for `Cc1cc(C)c(Nc2ccnc(Nc3ccc(C#N)cc3)n2)c(C)c1` [PCM-0095398], 7%.

`CCCCCCOc1cc(C)c(O)c(C)c1C` [PCM-0216088]: the inhibition at 10 µM was -25.5%. Still for that read-out and setting: for `CC[C@H](Nc1ncnc2nc[nH]c12)c1oc2ccccc2c(=O)c1-c1cccc(F)c1` [PCM-0216040] the value was 8.5%; for `COc1ccc(-c2ccc3c(N4CCOCC4)nc(N4C[C@@H](C)O[C@@H](C)C4)nc3n2)cc1CO` [PCM-0094955], -12.4%. Same read-out and setting: the figure for `CC(C(=O)O)c1ccc2c(c1)Cc1cccnc1O2` (stereo not drawn) [PCM-0086477] is -11.7%; for `O=c1sn(-c2cccc3ccccc23)c(=O)n1Cc1ccccc1` [PCM-0095450] it is -12.4%.
